Measured values taken from patent US11292767B2, “Heterocyclic inhibitors of MCT4” (Vettore, LLC, priority 2016, dated 2022).

How the values were obtained:
[1] = molecular target: MCT1 (Homo sapiens (Human), UniProt P53985); test: Assay 4: MCT1-mediated lactate transport in BT20 breast cancer cells; type: cell-based; details: lactate transport (Table 27)
Procedure: Preparing BCECF-Loaded Cells
10 µL of a 30 mM DMSO stock of BCECF-AM ester (Life Technologies) is added and the cells are incubated at 37° C. for 5 min. The cells are pelleted (300 g, 5 min), washed once with 1 mL Tyrode's Solution, pH 7.4, re-pelleted (300 g, 5 min), and resuspended in 1 mL Tyrode's Solution, pH 7.4.
Assay 4: MCT1-Mediated Lactate Transport in BT20 Breast Cancer Cells.
Preparation of BCECF loaded cells are as described for Assay 1. Lactate transport assay is as described for Assay 1, except 10 mM L-lactate (rather than 50 mM) is added.

[2] = Metabolic stability in human liver microsomes (in vitro t1/2); type: in vitro ADME; details: human liver microsomes 0.5 mg/mL, 2 μM compound; for Human microsome % 60 min: % remaining at 60 min
Procedure: (§1) Metabolic Stability Assays The following are assays that may be used to evaluate the metabolic stability of compounds of Formula (I) in human, rat, or mouse microsomes. The assays follow a common procedure recited below. 1. […] Two separated experiments were performed as follows. a) With NADPH: 10 μL of 20 mg/mL liver microsomes and 40 μL of 10 mM NADPH were added to the incubations. […] The final concentration of microsomes was 0.5 mg/mL. 3. The reaction was started with the addition of 4 μL of 200 μM control compound or test compound solutions. Verapamil was used as positive control in this study. The final concentration of test compound or control compound was 2 μM. 4. Aliquots of 50 μL were taken from the reaction solution at 0, 15, 30, 45 and 60 min. […] Samples were centrifuged at 3,220 g for 40 minutes. A 90 μL aliquot of the supernatant was mixed with 90 μL of ultra-pure H2O and then used for LC-MS/MS analysis. 5. Data analysis. All calculations were carried out using Microsoft Excel. Peak areas were determined from extracted ion chromatograms. The slope value, k, was determined by linear regression of the natural logarithm of the remaining percentage of the parent drug vs. incubation time curve. The in vitro half-life (in vitro t1/2) was determined from the slope value: in vitro t1/2=−(0.693)/k.

[3] = Metabolic stability in rat liver microsomes (in vitro t1/2); type: in vitro ADME; details: rat liver microsomes 0.5 mg/mL, 2 μM compound, % remaining at 60 min
Procedure: as §1

[4] = Metabolic stability in mouse liver microsomes (in vitro t1/2); type: in vitro ADME; details: mouse liver microsomes 0.5 mg/mL, 2 μM compound; for Mouse microsome % 60 min: % remaining at 60 min; for Mouse microsome t1/2, min: in vitro t1/2
Procedure: as §1

[5] = Pharmacokinetic assay in rat (IV 3 mg/kg, PO 10 mg/kg); type: in vivo; details: male, Sprague-Dawley, plasma, read-out: Rat F (%)
From the text: Pharmacokinetic Assays in Mouse and Rat
The following are assays that may be used to evaluate the pharmacokinetic properties of Formula (I) in mouse or rat. The assays follow a common procedure recited below.
1. […] For PO (oral gavage), DMSO/PEG400 (10:90). Formulations freshly prepared on the day of dosing or prior to dosing. Storage at room temperature.
2. Test Species: For Mouse: Male CD1 strain, approximately 6-8 weeks in age, approximately 20-30 g. For Rat: Male Sprague-Dawley strain, approximately 6-8 weeks in age, approximately 200-300 g.
3. Dose Level: For IV, 3 mg/kg. For PO, 10 mg/kg.
4. Number of animals: 3 per assay.
5. PK time points: For IV (plasma): 5 min, 15 min, 1, 2, 4, 6, 8, 24 h post dose. For PO (plasma): 15 min, 30 min, 1, 2, 4, 6, 8, 24 h post dose.
6. Blood Sample Collection and Processing. Blood was collected (˜0.2 mL per time point) from jugular vein. Blood of each sample was transferred into plastic micro centrifuge tubes containing anticoagulant of EDTA-K2. Blood samples were centrifuged at 2,000 g for 5 minutes at 4° C. to obtain plasma.
7. Samples Analysis: Plasma samples were analyzed using LC/MS/MS method, and pharmacokinetic parameters (half-life: t1/2; oral bioavailability: F; volume of distribution: Vss).

[6] = test system: CFA-induced arthritis; test: Adjuvant-induced arthritis model in rat: Difference of Weight Bearing test (DWB); type: in vivo; details: SD rat, PO 3 days post CFA, compared to dexamethasone
[7] = test system: CFA-induced arthritis; test: Adjuvant-induced arthritis model in rat: Mechanical Allodynia test (MA); type: in vivo; details: SD rat, PO 3 days post CFA, compared to dexamethasone

Chain of MCT1 (P53985 whole entry): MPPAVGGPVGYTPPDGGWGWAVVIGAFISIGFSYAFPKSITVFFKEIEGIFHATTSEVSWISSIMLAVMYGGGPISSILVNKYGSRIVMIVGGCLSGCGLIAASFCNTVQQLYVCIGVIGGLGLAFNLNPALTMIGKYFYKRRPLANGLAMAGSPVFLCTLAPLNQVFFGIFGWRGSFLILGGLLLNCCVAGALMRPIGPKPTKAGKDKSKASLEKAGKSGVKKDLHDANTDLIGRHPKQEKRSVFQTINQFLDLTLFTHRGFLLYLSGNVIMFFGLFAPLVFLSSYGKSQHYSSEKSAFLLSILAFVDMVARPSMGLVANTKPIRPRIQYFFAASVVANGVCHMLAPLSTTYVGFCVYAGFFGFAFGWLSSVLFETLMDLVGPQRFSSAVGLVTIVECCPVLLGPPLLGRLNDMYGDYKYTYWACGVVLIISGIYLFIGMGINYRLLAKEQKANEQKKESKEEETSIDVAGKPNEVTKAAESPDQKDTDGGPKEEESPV
Chain of MCT1 (P35613 140-385 partner): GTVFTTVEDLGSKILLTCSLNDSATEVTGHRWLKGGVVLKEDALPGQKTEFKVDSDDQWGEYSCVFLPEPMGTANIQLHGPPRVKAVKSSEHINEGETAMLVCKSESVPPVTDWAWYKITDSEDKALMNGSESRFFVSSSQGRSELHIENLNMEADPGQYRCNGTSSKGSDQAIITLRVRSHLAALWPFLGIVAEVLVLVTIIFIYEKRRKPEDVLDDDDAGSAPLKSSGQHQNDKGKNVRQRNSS

Row | SMILES | IC50 [1] | Human microsome % 60 min [2] | Rat microsome % 60 min [3] | Mouse microsome % 60 min [4] | Mouse microsome t1/2, min [4] | bioavailability [5] | Difference in Weight Bearing, Minimal Efficacious Dose [6] | Mechanical Allodynia (Von Frey), Minimal Efficacious Dose [7] | Human microsome t1/2, min ([2]; in vitro t1/2)
1 | CC(C)(OCc1cc(-c2ccsc2)n(Cc2ccccc2Cl)n1)C(=O)O [Example 24, 2-([1-[(2-Chlorophenyl)methyl]-5-(thien-3-yl)1H-pyrazol-3-yl]methoxy)-2-methylpropanoic acid] | > 100000 nM | – | – | – | – | – | – | – | –
2 | CC(C)(OCc1cc(-c2cccc(OC(F)(F)F)c2)n(Cc2ccccc2Cl)n1)C(=O)O [Example 34, 2-([1-[(2-Chlorophenyl)methyl]-5-[3-(trifluoromethoxy)phenyl]1H-pyrazol-3-yl]methoxy)-2-methylpropanoic acid] | > 11000 nM | – | – | – | – | – | – | – | –
3 | CC(C)(OCc1cc(-c2cccc(CN3CCOCC3)c2)n(Cc2ccccc2Cl)n1)C(=O)O [Example 40, 2-([1-[(2-Chlorophenyl)methyl]-5-[3-(morpholinomethyl)phenyl]1H-pyrazol-3-yl]methoxy)-2-methylpropanoic acid] | > 100000 nM | – | – | – | – | – | – | – | –
4 | Cc1ccccc1-n1nc(COC(C)(C)C(=O)O)cc1-c1cccc(OC2CCC2)c1 [Example 161, 2-([5-(3-Cyclobutoxyphenyl)-1-(2-methylphenyl)-1H-pyrazol-3-yl]-methoxy)-2-methylpropanoic acid] | – | 82% | 80% | 99% | ∞ | 61% | ≤10 mg/kg | ≤10 mg/kg | –
5 | CC(C)(OCc1cc(-c2cccc(OC3CCC3)c2)n(-c2ccccc2Cl)n1)C(=O)O [Example 175, 2-([1-(2-Chlorophenyl)-5-(3-cyclo-butoxyphenyl)-1H-pyrazol-3-yl]-methoxy)-2-methylpropanoic acid] | – | 83% | 87% | 94% | – | 48% | >10 mg/kg | >10 mg/kg | –
6 | COc1cc(OC)cc(-c2cc(COC(C)(C)C(=O)O)nn2-c2ccccc2Cl)c1 [Example 179, 2-([1-(2-Chlorophenyl)-5-(3,5-dimethoxyphenyl)-1H-pyrazol-3-yl]-methoxy)-2-methylpropanoic acid] | – | 93% | 85% | 98% | ∞ | 76% | ≤10 mg/kg | ≤10 mg/kg | –
7 | CCOc1cc(OCC)cc(-c2cc(COC(C)(C)C(=O)O)nn2-c2ccccc2Cl)c1 [Example 180, 2-([1-(2-Chlorophenyl)-5-(3,5-diethoxy-phenyl)-1H-pyrazol-3-yl]methoxy)-2-methylpropanoic acid] | – | 88% | 98% | – | ∞ | 49% | >10 mg/kg | >10 mg/kg | –
8 | Cn1ncc2cccc(-n3nc(COC(C)(C)C(=O)O)cc3-c3cccc(OC4CC4)c3)c21 [Example 191, 2-([5-(3-Cyclopropoxyphenyl)-1-(1-methyl-1H-indazol-7-yl)-1H-pyrazol-3-yl]methoxy)-2-methylpropanoic acid] | – | 98% | 94% | 97% | – | 97% | >10 mg/kg | >10 mg/kg | –
9 | CCOc1ccccc1Cn1nc(COC(C)(C)C(=O)O)cc1-c1ccc2cnn(CC)c2c1 [Example 198, 2-([1-[(2-Ethoxyphenyl)methyl]-5-(1-ethyl-1H-indazol-6-yl)-1H-pyrazol-3-yl]methoxy)-2-methylpropanoic acid] | – | 80% | 82% | 84% | – | – | – | – | –
10 | CCOc1ccccc1Cn1nc(COC(C)(C)C(=O)O)cc1-c1cccc(OC2CC2)c1 [Example 201, 2-([5-(3-Cyclopropoxyphenyl)-1-[(2-ethoxyphenyl)methyl]-1H-pyrazol-3-yl]-methoxy)-2-methylpropanoic acid] | – | 58% | 39% | 58% | – | – | – | – | –
11 | CC(C)(OCc1cc(-c2cccc(OC3CC3)c2)n(Cc2ccccc2N2CCCC2)n1)C(=O)O [Example 202, 2-([5-(3-Cyclopropoxyphenyl)-1-[[2-(pyrrolidin-1-yl)phenyl]methyl]-1H-pyrazol-3-yl]methoxy)-2-methylpropanoic acid] | – | 32% | 2% | 32% | – | – | – | – | –
12 | CC(C)(OCc1cc(-c2cccc(OC3CC3)c2)n(-c2ccccc2N2CCCC2)n1)C(=O)O [Example 221, 2-([5-(3-Cyclopropoxyphenyl)-1-[2-(pyrrolidin-1-yl)phenyl]-1H-pyrazol-3-yl]methoxy)-2-methylpropanoic acid] | – | 56% | 33% | 34% | – | – | – | – | –
13 | CC[C@@](C)(OCc1cc(-c2cc(OC)cc(OC)c2)n(-c2ccccc2Cl)n1)C(=O)O [Example 222, (2R)-2-([1-(2-Chlorophenyl)-5-(3,5-dimethoxyphenyl)-1H-pyrazol-3-yl]-methoxy)-2-methylbutanoic acid] | – | 110% | 90% | 94% | – | – | – | – | ∞
14 | COc1cc(OC)cc(-c2cc(COC(C)(C)C(=O)O)nn2Cc2ccccc2Cl)c1 [Example 224, 2-([1-[(2-Chlorophenyl)methyl]-5-(3,5-dimethoxyphenyl)-1H-pyrazol-3-yl]-methoxy)-2-methylpropanoic acid] | – | 91% | 73% | 98% | – | 53% | ≤10 mg/kg | ≤10 mg/kg | –
15 | Cn1ncc2ccc(-c3cc(COC(C)(C)C(=O)O)nn3Cc3ccccc3Cl)cc21 [Example 226, 2-([1-[(2-Chlorophenyl)methyl]-5-(1-methyl-1H-indazol-6-yl)-1H-pyrazol-3-yl]methoxy)-2-methylpropanoic acid] | – | 95% | 88% | 95% | – | – | – | – | –
16 | CCOc1cccc(-n2nc(COC(C)(C)C(=O)O)cc2-c2cc(OC)cc(OC)c2)c1 [Example 243, 2-([5-(3,5-Dimethoxyphenyl)-1-(3-ethoxyphenyl)-1H-pyrazol-3-yl]-methoxy)-2-methylpropanoic acid] | – | 88% | 88% | 97% | – | – | – | – | –
17 | CCCn1ncc2ccc(-c3cc(COC(C)(C)C(=O)O)nn3-c3ccccc3N3CCC3)cc21 [Example 246, 2-([1-[2-(Azetidin-1-yl)phenyl]-5-(1-propyl-1H-indazol-6-yl)-1H-pyrazol-3-yl]methoxy)-2-methylpropanoic acid] | – | 65% | 69% | 81% | – | 52% | – | – | –
18 | COc1cc(OC)cc(-c2cc(COC(C)(C)C(=O)O)nn2-c2ccccc2N2CCC2)c1 [Example 251, 2-((1-(2-(Azelidin-1-yl)phenyl)-5-(3,5-dimethoxyphenyl)-1H-pyrazol-3-yl)methoxy)-2-methylpropanoic acid] | – | 77% | 83% | 63% | – | 98% | – | – | –
